Patent publication US10851073B2, “Protein tyrosine phosphatase inhibitors and methods of use thereof” (Calico Life Sciences LLC, priority 2019, dated 2020)

Assays:
[1] = test system: MC-38 murine colon adenocarcinoma; experiment: In vivo efficacy in MC38 mouse tumor model
Description: Example 232. In Vivo Efficacy of PTPN2 Inhibitors in MC38 Mouse Tumor Model and Impact on Pharmacodynamic Markers
All experiments were conducted in compliance with AbbVie's Institutional Animal Care and Use Committee and the National Institutes of Health Guide for Care and Use of Laboratory Animals guidelines in a facility accredited by the Association for the Assessment and Accreditation of Laboratory Animal Care. C57Bl/6 female mice were obtained from Charles River (Wilmington, Mass.). The mice were group-housed 10 per cage. Food and water were available ad libitum. Animals were acclimated to the animal facilities for a period of at least one week prior to commencement of experiments. Animals were tested in the light phase of a 12-hour light: 12-hour dark schedule (lights on 0600 hours).
Tumor Cell Inoculation and Treatments.
Cells were grown to passage 3 in vitro. A total of 1×10^5 viable MC-38 cells were inoculated subcutaneously into the right flank of female C57Bl/6 mice (7-12 weeks old) on Day 0. The injection volume was 0.1 mL and was composed of a 1:1 mixture of S-MEM and Matrigel® (Corning, N.Y., USA). […] The mean tumor volume (TV) at size match was approximately 196±64 mm^3. Following size match, treatments were initiated on the same day. Dosing of mice was conducted orally, twice a day (BID) at 7 a.m. and 5 p.m. for 21 days. Mice were dosed (10 mg/kg/dose) with either Compound 118 or vehicle controls (n=15 mice/group). Compound 118 was formulated in 10% ethanol, 30% PEG-400 and 60% Phosal-50PG and was dosed at 10 mL/kg. Tumor volume was calculated three times weekly. Measurements of the length (L) and width (W) of the tumor were taken via electronic caliper and the volume was calculated according to the following equation: V=L×W^2/2 using Study Director Version 3.1.399.22 (Studylog Systems, Inc, CA, USA). Mice were euthanized when tumor volume was […] or skin ulcerations occurred. Tumor growth inhibition (TGI) was calculated as TGI=1−(Mean TVTimepoint(Treatment)/Mean TVTimepoint (Vehicle)) for each timepoint that tumor volumes were measured. Reported TGIMax is the largest TGI value for any timepoint that tumors volumes were collected for that treatment group.

pSTAT5 in CD3+ T cells = experiment: pSTAT5 flow cytometry assay in mouse whole blood; assay type: in vivo
Description: pSTAT5 Flow Cytometry Assay in Mouse Whole Blood. Whole blood was drawn into EDTA powder coated tubes by cardiac puncture from mice on day 8 of dosing with Compound 118 (2 hours after the 16th dose). 90 μL of whole blood were stimulated with 10 μL of murine IL-2 to achieve a final concentration of 100 ng IL-2/mL (R&D Systems, Minneapolis, Minn., cat #402-ML) for 20 minutes at 37° C., 5% CO2. After stimulation, 1.8 mL of prewarmed BD Phosflow Lyse/Fix Buffer (BD Biosciences, San Jose, Calif.) was added for 20 minutes at 37° C. Cells were washed twice in FACS buffer (Dulbecco's PBS with 0.2% BSA) and incubated for 30 minutes on ice in cold Perm Buffer III (BD Biosciences, San Jose, Calif.). Cells were washed with FACS buffer and resuspended in 50 μL of FACS buffer with antibodies and stained for 3 hours at room temperature with gentle shaking. […] After staining, cells were washed twice with FACS buffer, and the samples were acquired on a BD LSRFortessa™ X20 flow cytometers (BD Biosciences, San Jose, Calif.) and analyzed with FLowJo V10 software (FlowJo, Ashland, Oreg.). The mean fluorescence intensity (MFI) of pSTAT5 as a measure of the amount of phosphorylated STAT5 in the CD3+ T cell population from vehicle or Compound 118 treated animals was reported.

[2] = test system: Granzyme B+ cells within the CD8+ T cell population; experiment: Granzyme B staining of CD8 T cells flow cytometry assay in mouse spleen; assay type: in vivo
Description: Granzyme B Staining of CD8 T Cells Flow Cytometry Assay in Mouse Spleen. Mice were sacrificed on day 8 of dosing with Compound 118 (2 hours after the 16th dose) and spleens were excised. Spleens were dissociated with a gentleMACS dissociator (Miltenyi Biotec, Bergisch Gladbach, Germany), red blood cells lysed, and single cell suspensions were prepared. Splenocytes were stained with Zombie UV™ Fixable Viability kit (Biolegend, San Diego, Calif.) diluted in Dulbecco's PBS for 10 minutes at room temperature to exclude dead cells followed by staining for surface markers for 45 minutes on ice using the following flow cytometry antibodies diluted in autoMACS Running Buffer (Miltenyi Biotec, Bergisch Gladbach, Germany): Brilliant Violet 510-labeled anti-CD45, Brilliant Ultraviolet 395-labeled anti-CD3, Brilliant Violet 786-labeled anti-CD4, APC/Cy7-labeled anti-CD8. […] After staining, cells were washed twice with autoMACS Running Buffer, and the samples were acquired on a BD LSRFortessa™ X20 flow cytometers (BD Biosciences, San Jose, Calif.) and analyzed with FLowJo V10 software (FlowJo, Ashland, Oreg.). […]

[3] = 10 mg/kg/dose oral BID for 21 days
[4] = 10 mg/kg/dose oral BID, day 8 of dosing (2 hours post 16th dose), value ± SEM

With `CC(C)CCN[C@@H]1CCc2cc(O)c(N3CC(=O)NS3(=O)=O)c(F)c2C1` (single isomer, unassigned) [Compound 118] the “mice that achieved complete cures” value [1, 3] was 70%, the tolerability [1, 3] was “well tolerated, without obvious adverse health events” and the “Tumor Growth Inhibition (Max) compared to vehicle [%]” value ([1]; 10 mg/kg/dose oral BID for 21 days, C57Bl/6 mice) was 94%. The tumor response observed ([1]; within 7-10 days of treatment) was “apparent tumor stasis and shrinkage”, the “pSTAT5 level [MFI] in CD3+ T cells from IL2 stimulated whole blood” value (pSTAT5 in CD3+ T cells; [4]) was 1261±97 MFI and the “pSTAT5 levels in whole blood T cells, fold higher than vehicle” value (pSTAT5 in CD3+ T cells; day 8 of dosing, ex vivo IL2 stimulation) was 1.6 fold. The “% GzB+ cells within splenic CD8+ T cells” value [2, 4] was 4.3±0.9% and the “frequency of granzyme B producing cells within CD8+ T population in spleen, fold higher than vehicle” value ([2]; day 8 of dosing) was 3.9 fold.
